# Experimental data published in patent US8048440B2, “Thermoplastic fluoropolymer-coated medical devices” (Gore Enterprise Holdings, Inc., priority 2002, dated 2011).
# Where a name gives a salt, the structure may show the parent alone.
# Test: release of chlorhexidine dihydrochloride from the pocketed TFE/PMVE film composite in PBS, with needle puncture
# Format: physicochemical
# Conditions: 1 cm by 1 cm composite in PBS at 37° C., punctured with 16-gauge needle
# Text: A polypropylene template with 0.7 mm diameter holes arranged in a rectangle pattern was made to facilitate manufacturing of the device. The holes were evenly spaced approximately 2 mm apart, from edge to edge. This template was placed on top of one of the TFE/PMVE extruded sheets, then dusted with chlorhexidine dihydrochloride. The template was removed, leaving a dot-matrix pattern of the drug on the surface of the extruded film. A second sheet of extruded polymer was gently placed on top of the first sheet. The composite of polymer sheets and drug was wrapped in aluminum foil, placed between two metal plates, heated in an oven set at 115° C. for 15 minutes, removed from the oven, immediately pressed between the two hot metal plates for 15 minutes, and then removed from the metal plates and aluminum foil. This process created encapsulated drug pockets between the polymer films. An approximately 1 cm by 1 cm square of finished material was placed into phosphate buffered saline (PBS) at 37° C., periodically sampled for antimicrobial content, and punctured with a 16-gauge needle. The release of the chlorhexidine dihydrochloride as a function of puncturing the composite and time in solution is shown in FIG. 7C. […] Thus, an additional dose of the drug can be delivered on demand as a consequence of puncturing drug pockets.
smiles,measurement,value
[H]/N=C(\N/C(=N/[H])NCCCCCCNC(=N)NC(=N)Nc1ccc(Cl)cc1)Nc1ccc(Cl)cc1 [chlorhexidine dihydrochloride],release of chlorhexidine dihydrochloride as a function of puncturing and time in solution,continuously released at a minimal level until the composite was punctured with the needle
